Experimental data from patent US9708628B2, “Cationic lipid having improved intracellular kinetics” (NOF CORPORATION, priority 2011, dated 2017).
“Also recorded” adds a separate entry of the source.

Experiments:
[1] = tested on: Rabbit Reticulocyte Lysate Systems; assay: Influence on in vitro translation reaction (luciferase mRNA); assay type: biochemical; settings: MEND 0.0625-0.25 μg per 1 μL mRNA solution, 30° C., 90 min
Protocol: MENDs having a composition of B-2:SOPE:Chol=5:3:2 were prepared by the method described in [Experimental Example 1] (2). For the preparation, PEG2000-DMG was used as PEG lipid, and MEND solutions corresponding to 0.55 mM of the lipid concentration were prepared. For cationic MEND, lipids having a composition of DOTAP:DOPE:Chol:=3:4:3 were used, and the cationic MEND was prepared according to the method described in [Experimental Example 1] (3).
Luciferase-mRNA solution was diluted to 0.005 μg/μL. Various MEND solutions were added in 0.0625, 0.125, 0.25 μg relative to 1 μL of mRNA solution to adjust the total amount to 6.5 μL. A mixture of RRL (Rabbit Reticulocyte Lysate, 17.5 μL), AAM (Amino Acid Mixture)-Met (0.25 μL), AAM-Leu (0.25 μL), and RRI (Recombinant RNase Inhibitor, 0.5 μL) was added, and the mixture was stood at 30° C. for 90 min.
10 μL thereof was mixed with a Luciferase assay substrate (50 μL), and the luciferase activity in a given time was measured by a luminometer. […] Thereafter, the absorbance at 562 nm was measured, and the protein amount of the sample was calculated from the absorbance of a BSA solution having a known concentration. The luciferase activity (RLU) was adjusted by dividing with protein amount (mg), and the luciferase activity per cellular protein amount (RLU/mg protein) was calculated.

[2] = tested on: HT1080 cells; assay: Inhibitory effect of GA (ginkgolic acid) on gene expression; assay type: cell-based; settings: 0, 25, 50, 100 μM GA
Protocol: MENDs of B-2-4 (Example 4), B-2 (Example 1) were prepared according to [Experimental Example 16], [Experimental Example 1] (1), (2). For the preparation, PEG2000-DMG was used as PEG lipid, and MEND solutions corresponding to 0.55 mM of the lipid concentration were prepared.
(§1) HT1080 cells were plated on a 3.5 cm cell culture dish at 4×10^4 cells/2 mL/dish 24 hr before, various MENDs were diluted with DMEM (FBS 10%+, Phenol red free) containing a final concentration of 200 μM of D-luciferin potassium and 0, 25, 50, 100 μM of GA (Calbiochem) to achieve 1.6 μg/2 mL/dish based on the pDNA amount and transfection was performed. According to the Kronos Dio package insert, the luminescence amount was measured for 2 min every 20 min and taken as the luciferase activity (RLU/2 min).

[3] = tested on: HT1080 cells; assay: Time-course of intracellular uptake amount of MEND (Cy5-labeled pDNA, FACS); assay type: cell-based; settings: pDNA 1.6 μg/2 mL/well; 1, 3, 6 hr
Protocol: (§2) MENDs of B-2-4 (Example 4), B-2 (Example 1) were prepared according to [Experimental Example 1] (1), (2), [Experimental Example 15]. For the preparation, PEG2000-DMG was used as PEG lipid, and MEND solutions corresponding to 0.55 mM of the lipid concentration were prepared. For cationic MEND, lipids having a composition of DOTAP (Comparative Example 3):DOPE:Chol:=3:4:3 were used, and the cationic MEND was prepared according to the method described in [Experimental Example 1] (3). pDNA was labeled with fluorescence according to the method described in [Experimental Example 15] (2).
HT1080 cells were plated on a 6-well plate at 2×10^5 cells/2 mL/well 24 hr before, various sample MENDs were diluted with DMEM (FBS+) to a pDNA concentration of 1.6 μg/2 mL/well and transfected into the well. After 1, 3, 6 hr, MEND-containing DMEM was removed, and the cells were washed twice with heparin (20 units/mL, 1 mL), and further once with PBS(−) (1 mL). 0.05% Trypsin solution (500 μL) was added, and the cells were stood in an incubator at 37° C. for 3 min. DMEM (FBS+) (1 mL) was added and the mixture was centrifuged (700 g, 4° C., 5 min). The supernatant was removed and the cells were suspended in FACS buffer (1 mL). […] The suspension was passed through a 44 μm nylon mesh immediately before the measurement, and the fluorescence intensity of intracellular Cy5 was measured.

[4] = tested on: HT1080 cells; assay: Influence of endosomal acidification inhibitor BafA1 (Kronos Dio); assay type: cell-based; settings: 0.5 μM BafA1
Protocol: MENDs of B-2-4 (Example 4), B-2 (Example 1) were prepared according to [Experimental Example 1] (1), (2), [Experimental Example […]]. For the preparation, PEG2000-DMG was used as PEG lipid, and MEND solutions corresponding to 0.55 mM of the lipid concentration were prepared.
HT1080 cells were plated on a 3.5 cm cell culture dish at 4×10^4 cells/2 mL/dish 24 hr before. The medium was changed to DMEM (FBS 10%+) containing 0.5 μM BafA1 (Bafilomycin A1) 30 min before transfection. 30 min later, various MENDs were added to the dish at 1.6 μg/2 mL/dish based on the pDNA amount. 3 hr after the transfection, the medium was changed to DMEM (FBS 10%+, Phenol red free) containing a final concentration 200 μM of D-luciferin potassium. According to the Kronos Dio package insert, the luminescence amount was measured for 2 min every 20 min and taken as the luciferase activity (RLU/2 min).

[5] = tested on: HT1080 cells; assay: Time-course evaluation of gene expression using Kronos Dio (luciferase, RLU/2 min); assay type: cell-based; settings: pDNA 1.6 μg/2 mL/dish
Protocol: as §2, with “(2), and” for “(2),”, “18].” for “15].”, “(3).” for “(3). pDNA was labeled with fluorescence according to the method described in [Experimental Example 15] (2).”
as §1, with “(FES” for “(FBS”, “potassium” for “potassium and 0, 25, 50, 100 μM of GA (Calbiochem)”

SMILES	inhibitory effect on in vitro translation reaction [1]	inhibitory effect of GA on gene expression activity [2]	intracellular uptake amount (Cy5-labeled pDNA) [3]	activity under endosomal acidification inhibition using BafA1 [4]	gene expression activity (luciferase, RLU/2 min), time course [5]
CCCCCCCC/C=C\CCCCCCCC(=O)OCC(C[N+](C)(C)C)OC(=O)CCCCCCC/C=C\CCCCCCCC (stereo not shown) [DOTAP, reference compound]	significant inhibitory effect				
CC1=C(/C=C/C(C)=C/C=C/C(C)=C/C(=O)OCCCN(C)CCSSCCN(C)CCCOC(=O)/C=C(C)/C=C/C=C(C)/C=C/C2=C(C)CCCC2(C)C)C(C)(C)CCC1 [Example B-2-4]		higher inhibitory effect on B-2-4 than on B-2	low as compared to the MENDs using DOTAP; also recorded: more highly uptaken than B-2	inhibited	significantly higher than that of MENDs formed from B-2-1 and DOTAP
CCCCCCCCCCCCCC(=O)OCCCN(C)CCSSCCN(C)CCCOC(=O)CCCCCCCCCCCCC [Example B-2]	not observed	higher inhibitory effect on B-2-4 than on B-2	low as compared to the MENDs using DOTAP	inhibited	equivalent to that of DOTAP
